Assays:
human SMG1 enzyme = human SMG1 enzyme (Homo sapiens, UniProt Q96Q15); assay: Measurement of SMG1 kinase activity (ADP-Glo Kinase Assay); format: biochemical; conditions: purified human SMG1 enzyme 5 nM, Upf1 peptide substrate, ATP 4 μM; qAC50 synonymous with IC50; read-out: Test Example 1 ADP-Glo IC50
In short: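 Purified human SMG1 (5 nM) preincubated with compound (1% DMSO) 15 min at room temperature in HEPES pH 7.5 buffer with MnCl2, then reacted 60 min with Upf1 peptide (8 μg/mL) and 4 μM ATP. ADP formed measured by ADP-Glo luminescence; IC50 by 4-parameter logistic fit, normalised to DMSO (0%) and enzyme-free (−100%) wells.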

[1] = test system: Snhg1 transcript (NMD target gene) in EMT6 murine breast cancer cell line; assay: Measurement of NMD inhibitory activity in cells (increase in Snhg1 transcript, real-time PCR); parameters: species or system mouse; conditions: Mus musculus, 6 hours treatment, concentration giving 1/2 of maximum Snhg1 fold change of positive control, read-out: Test Example 2 Cell-based Snhg1 EC50
In short: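 EMT6 cells treated with serially diluted compound (2% DMSO final) for 6 h; Snhg1 transcript quantified by real-time PCR (ΔΔCT, Tbp endogenous control, untreated wells set to 1). EC50 taken as concentration giving half the maximum fold change of a known NMD inhibitor positive control.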

[2] = test system: Snhg1 transcript in tumor tissues of mice subcutaneously implanted with EMT6 murine breast cancer cell line; assay: Evaluation of NMD inhibitory activity in vivo (Snhg1 transcript in EMT6 tumor tissue after oral administration); conditions: 6 hours after administration, BALB/c mice
In short: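 BALB/c mice bearing subcutaneous EMT6 tumours (engraftment confirmed day 7) dosed orally; tumours excised 6 h post-dose. Snhg1 RNA quantified by qRT-PCR, ΔΔCT with Gapdh as endogenous control, expressed relative to 0.5% methylcellulose vehicle group set at 1.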

Chain of human SMG1 enzyme (Q96Q15 whole entry): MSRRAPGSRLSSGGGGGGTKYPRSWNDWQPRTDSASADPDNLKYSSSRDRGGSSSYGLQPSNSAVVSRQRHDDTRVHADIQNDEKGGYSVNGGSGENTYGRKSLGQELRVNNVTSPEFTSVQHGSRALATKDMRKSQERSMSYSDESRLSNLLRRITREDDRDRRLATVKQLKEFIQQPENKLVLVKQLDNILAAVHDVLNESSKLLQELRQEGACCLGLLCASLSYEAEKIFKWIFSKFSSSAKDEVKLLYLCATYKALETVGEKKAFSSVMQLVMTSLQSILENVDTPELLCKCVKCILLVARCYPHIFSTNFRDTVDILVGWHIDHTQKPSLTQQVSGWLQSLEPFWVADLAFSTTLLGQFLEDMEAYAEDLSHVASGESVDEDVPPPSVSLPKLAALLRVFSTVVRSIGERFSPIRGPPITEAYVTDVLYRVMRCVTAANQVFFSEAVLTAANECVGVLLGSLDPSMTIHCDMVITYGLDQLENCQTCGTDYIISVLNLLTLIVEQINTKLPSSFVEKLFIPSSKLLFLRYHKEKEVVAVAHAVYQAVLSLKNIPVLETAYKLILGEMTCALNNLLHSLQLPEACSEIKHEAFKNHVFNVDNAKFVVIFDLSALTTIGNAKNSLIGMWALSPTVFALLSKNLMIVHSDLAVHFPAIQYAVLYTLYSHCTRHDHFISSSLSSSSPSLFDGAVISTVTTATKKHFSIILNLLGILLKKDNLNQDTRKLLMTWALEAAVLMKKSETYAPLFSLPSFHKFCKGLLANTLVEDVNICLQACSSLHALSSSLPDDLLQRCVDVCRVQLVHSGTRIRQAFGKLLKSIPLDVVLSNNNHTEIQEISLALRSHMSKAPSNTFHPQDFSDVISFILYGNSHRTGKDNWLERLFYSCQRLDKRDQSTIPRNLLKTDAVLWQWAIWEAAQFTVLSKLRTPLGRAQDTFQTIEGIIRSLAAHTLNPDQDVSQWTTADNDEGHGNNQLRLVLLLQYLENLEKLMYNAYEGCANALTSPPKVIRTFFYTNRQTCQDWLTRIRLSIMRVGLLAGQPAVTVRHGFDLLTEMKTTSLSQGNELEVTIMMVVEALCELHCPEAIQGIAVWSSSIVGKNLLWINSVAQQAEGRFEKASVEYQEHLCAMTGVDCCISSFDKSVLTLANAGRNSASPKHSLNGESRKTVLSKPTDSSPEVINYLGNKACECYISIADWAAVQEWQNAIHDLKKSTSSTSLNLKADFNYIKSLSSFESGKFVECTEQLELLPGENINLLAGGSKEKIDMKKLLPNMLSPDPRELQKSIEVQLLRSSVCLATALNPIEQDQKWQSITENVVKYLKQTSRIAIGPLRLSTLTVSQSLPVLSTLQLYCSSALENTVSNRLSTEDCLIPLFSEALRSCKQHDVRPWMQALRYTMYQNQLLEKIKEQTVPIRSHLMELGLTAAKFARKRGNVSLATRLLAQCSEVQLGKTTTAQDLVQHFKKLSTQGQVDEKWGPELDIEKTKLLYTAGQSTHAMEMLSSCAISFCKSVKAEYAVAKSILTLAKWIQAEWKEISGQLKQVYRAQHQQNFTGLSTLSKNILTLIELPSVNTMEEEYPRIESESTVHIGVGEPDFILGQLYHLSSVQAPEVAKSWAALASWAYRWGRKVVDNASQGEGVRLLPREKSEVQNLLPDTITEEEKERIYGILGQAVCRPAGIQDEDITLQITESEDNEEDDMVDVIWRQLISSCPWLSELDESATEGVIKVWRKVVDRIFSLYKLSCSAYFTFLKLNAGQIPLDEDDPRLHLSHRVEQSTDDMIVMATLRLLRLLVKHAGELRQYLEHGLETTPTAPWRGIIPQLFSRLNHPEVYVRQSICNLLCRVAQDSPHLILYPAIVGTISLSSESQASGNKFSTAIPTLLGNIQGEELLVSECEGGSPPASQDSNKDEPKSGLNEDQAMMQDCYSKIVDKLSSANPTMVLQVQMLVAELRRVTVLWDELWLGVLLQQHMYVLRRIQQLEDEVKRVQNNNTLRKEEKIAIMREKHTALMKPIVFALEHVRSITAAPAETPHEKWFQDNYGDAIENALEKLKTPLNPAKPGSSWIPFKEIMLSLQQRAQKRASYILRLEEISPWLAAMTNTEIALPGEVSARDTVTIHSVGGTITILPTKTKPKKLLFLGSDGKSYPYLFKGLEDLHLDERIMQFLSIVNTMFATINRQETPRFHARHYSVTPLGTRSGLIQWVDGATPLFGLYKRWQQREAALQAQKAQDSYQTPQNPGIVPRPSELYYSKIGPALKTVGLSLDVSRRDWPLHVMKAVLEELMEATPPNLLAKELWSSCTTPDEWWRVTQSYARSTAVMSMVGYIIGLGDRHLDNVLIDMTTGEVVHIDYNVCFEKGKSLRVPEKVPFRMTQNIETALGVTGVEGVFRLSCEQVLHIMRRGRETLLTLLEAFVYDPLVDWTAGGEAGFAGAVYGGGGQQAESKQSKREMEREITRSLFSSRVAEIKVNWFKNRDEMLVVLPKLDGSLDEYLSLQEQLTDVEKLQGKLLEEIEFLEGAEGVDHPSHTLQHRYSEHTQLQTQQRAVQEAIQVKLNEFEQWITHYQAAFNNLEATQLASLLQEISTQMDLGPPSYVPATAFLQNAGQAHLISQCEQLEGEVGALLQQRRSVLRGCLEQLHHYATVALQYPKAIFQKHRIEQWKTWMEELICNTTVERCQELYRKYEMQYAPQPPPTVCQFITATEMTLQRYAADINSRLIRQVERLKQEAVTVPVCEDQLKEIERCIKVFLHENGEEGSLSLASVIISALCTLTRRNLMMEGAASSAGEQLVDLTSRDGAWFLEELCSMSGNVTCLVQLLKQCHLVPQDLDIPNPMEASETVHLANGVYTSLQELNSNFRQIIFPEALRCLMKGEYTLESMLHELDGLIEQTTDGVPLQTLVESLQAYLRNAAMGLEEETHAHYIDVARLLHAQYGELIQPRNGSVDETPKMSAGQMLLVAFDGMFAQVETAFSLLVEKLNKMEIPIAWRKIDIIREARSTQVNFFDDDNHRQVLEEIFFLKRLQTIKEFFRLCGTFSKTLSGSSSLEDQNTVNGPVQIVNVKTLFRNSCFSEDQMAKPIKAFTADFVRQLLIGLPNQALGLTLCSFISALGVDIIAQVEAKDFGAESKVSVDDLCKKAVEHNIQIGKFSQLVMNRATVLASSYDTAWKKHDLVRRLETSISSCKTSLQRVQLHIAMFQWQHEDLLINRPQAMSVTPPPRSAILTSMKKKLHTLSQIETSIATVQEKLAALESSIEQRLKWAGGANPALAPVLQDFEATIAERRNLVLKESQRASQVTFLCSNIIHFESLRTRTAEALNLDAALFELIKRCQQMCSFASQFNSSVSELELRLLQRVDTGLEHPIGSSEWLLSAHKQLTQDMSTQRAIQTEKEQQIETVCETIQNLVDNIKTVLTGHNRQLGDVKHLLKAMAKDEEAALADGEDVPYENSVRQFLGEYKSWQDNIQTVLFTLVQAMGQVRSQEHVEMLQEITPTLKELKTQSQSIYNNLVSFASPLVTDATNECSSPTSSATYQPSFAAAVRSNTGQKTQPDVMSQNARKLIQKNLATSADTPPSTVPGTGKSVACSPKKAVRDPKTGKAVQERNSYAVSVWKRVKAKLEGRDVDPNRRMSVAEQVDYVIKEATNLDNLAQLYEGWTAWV

SMILES	IC50 (human SMG1 enzyme)	EC50 [1]	Snhg1 fold change ([2]; 30 mg/kg oral)	Snhg1 fold change ([2]; 10 mg/kg oral)
CS(=O)(=O)O.Cc1nccc2[nH]c(=O)c(-c3nc4c(C5CCOCC5)nc(Cl)cc4[nH]3)cc12 [Example 125, 3-[6-chloro-4-(tetrahydro-2H-pyran-4-yl)-1H-imidazo[4,5-c]pyridin-2-yl]-5-methyl-1,6-naphthyridin-2(1H)-one methanesulfonate]	0.72 nM	23 nM		6.5
CS(=O)(=O)O.O=c1[nH]c2ccncc2cc1-c1nc2c(C3CCOCC3)nc(Cl)cc2[nH]1 [Example 126, 3-[6-chloro-4-(tetrahydro-2H-pyran-4-yl)-1H-imidazo[4,5-c]pyridin-2-yl]-1,6-naphthyridin-2(1H)-one methanesulfonate]	1.6 nM	29 nM	4.1	
[2H]C([2H])([2H])Oc1ccccc1-c1nccc2[nH]c(=O)c(-c3nc4c(C(C)C)nc(Cl)cc4[nH]3)cc12 [Example 38, 3-[6-chloro-4-(propan-2-yl)-1H-imidazo[4,5-c]pyridin-2-yl]-5-{2-[(^2H3)methyloxy]phenyl}-1,6-naphthyridin-2(1H)-one]	1.7 nM	10 nM	9.2	
Cc1nc(Cl)cc2[nH]c(-c3cc4c(-c5c(F)cccc5Cl)nccc4[nH]c3=O)nc12 [Example 31, 5-(2-chloro-6-fluorophenyl)-3-(6-chloro-4-methyl-1H-imidazo[4,5-c]pyridin-2-y1)-1,6-naphthyridin-2(1H)-one]	1.3 nM	34 nM		5.5
CS(=O)(=O)O.Cc1nccc2[nH]c(=O)c(-c3nc4c(N5CCOC[C@H]5C)nc(Cl)cc4[nH]3)cc12 [Example 124, 3-{6-chloro-4-[(3R)-3-methylmorpholin-4-yl]-1H-imidazo[4,5-c]pyridin-2-yl}-5-methyl-1,6-naphthyridin-2(1H)-one methanesulfonate]	3.2 nM	55 nM		4.6
C[C@@H]1COCCN1c1nc(Cl)cc2[nH]c(-c3cc4cnccc4[nH]c3=O)nc12.Cc1ccc(S(=O)(=O)O)cc1 [Example 117, 3-{6-chloro-4-[(3R)-3-methylmorpholin-4-yl]-1H-imidazo[4,5-c]pyridin-2-yl}-1,6-naphthyridin-2(1H)-one p-toluenesulfonate]	5.1 nM	80 nM		5.1

More lines, in order of falling IC50 (human SMG1 enzyme), values ahead:

IC50 (human SMG1 enzyme)	EC50 [1]	SMILES	Snhg1 fold change ([2]; 30 mg/kg oral)	Snhg1 fold change ([2]; 10 mg/kg oral)
1.8 nM	36 nM	C[C@@H](Nc1nc(Cl)cc2[nH]c(-c3cc4c(N5CCC(N(C)C)CC5)nccc4[nH]c3=O)nc12)C(F)(F)F [Example 8, 3-(6-chloro-4-{[(2R)-1,1,1-trifluoropropan-2-yl]amino}-1H-imidazo[4,5-c]pyridin-2-yl)-5-[4-(dimethylamino)piperidin-1-yl]-1,6-naphthyridin-2(1H)-one]	4.1	
1.6 nM	46 nM	CS(=O)(=O)O.Cc1nccc2[nH]c(=O)c(-c3nc4c(N5CC[C@H]5C)nc(Cl)cc4[nH]3)cc12 [Example 123, 3-{6-chloro-4-[(2R)-2-methylazetidin-1-yl]-1H-imidazo[4,5-c]pyridin-2-yl}-5-methyl-1,6-naphthyridin-2(1H)-one methanesulfonate]	4.4	
1 nM	42 nM	Cc1nn(C(F)F)c(C)c1-c1nccc2[nH]c(=O)c(-c3nc4c(C)nc(Cl)cc4[nH]3)cc12 [Example 84, 3-(6-chloro-4-methyl-1H-imidazo[4,5-c]pyridin-2-yl)-5-[1-(difluoromethyl)-3,5-dimethyl-1H-pyrazol-4-yl]-1,6-naphthyridin-2(1H)-one]		4.6
0.95 nM	19 nM	COc1cc(OC)c(-c2nccc3[nH]c(=O)c(-c4nc5c(C)nc(Cl)cc5[nH]4)cc23)cn1.CS(=O)(=O)O [Example 144, 3-(6-chloro-4-methyl-1H-imidazo[4,5-c]pyridin-2-yl)-5-(4,6-dimethoxypyridin-3-yl)-1,6-naphthyridin-2(1H)-one methanesulfonate]	4.8	
0.85 nM	12 nM	COc1ncccc1-c1nccc2[nH]c(=O)c(-c3nc4c(NCC(F)F)nc(Cl)cc4[nH]3)cc12.CS(=O)(=O)O [Example 143, 3-{6-chloro-4-[(2,2-difluoroethyl)amino]-1H-imidazo[4,5-c]pyridin-2-yl}-5-(2-methoxypyridin-3-yl)-1,6-naphthyridin-2(1H)-one methanesulfonate]		8.5
0.53 nM	0.5 nM	CCc1nc(Cl)cc2[nH]c(N3Cc4c(ccnc4-c4cnc(C5CC5)cc4OC)NC3=O)nc12.CS(=O)(=O)O [Example 154, 3-(6-chloro-4-ethyl-1H-imidazo[4,5-c]pyridin-2-yl)-5-(6-cyclopropyl-4-methoxypyridin-3-yl)-3,4-dihydropyrido[4,3-d]pyrimidin-2(1H)-one methanesulfonate]		10
0.37 nM	3.1 nM	CCc1nc(Cl)cc2[nH]c(-c3cc4c(-c5cnc(C(F)F)cc5OC)nccc4[nH]c3=O)nc12.CS(=O)(=O)O [Example 141, 3-(6-chloro-4-ethyl-1H-imidazo[4,5-c]pyridin-2-yl)-5-[6-(difluoromethyl)-4-methoxypyridin-3-yl]-1,6-naphthyridin-2(1H)-one methanesulfonate]		8.4

— patent US20260109715A1, “IMIDAZOPYRIDINE DERIVATIVES WITH BICYCLIC STRUCTURE” (PUBLIC UNIVERSITY CORPORATION YOKOHAMA CITY UNIVERSITY, priority 2022, published 2026)
